According to patent publication EP4732839A1, “USE OF COMPOUND IN TREATMENT OF LIVER DISEASES” (priority 2023, dated 2025):
Values belong to the molecule of their own block, whether it stands above or below them.

Columns and labels:
[1] = tested on: IFN-α, IP-10, IL-6, and TNF-α; experiment: Liver safety: cytokine ELISA in liver tissue; assay type: in vivo, C57BL/6J wild-type female mice; conditions: 1 h, 2 h, 4 h
Method: (§1) C57BL/6J wild-type female mice (6 weeks old) were randomly grouped. After administration at different doses, whole blood and liver tissues of the mice were separately collected at 1 h, 2 h, and 4 h for detection of a plurality of parameters to evaluate the effect of the drugs on the liver.
(§2) Liver tissues and blood were collected at 1 h, 2 h, and 4 h after single dosing.
(§3) The supernatant was collected and stored (-20 °C); • (3) IFN-α, IP-10, IL-6, and TNF-α were detected using an ELISA kit. • (C) Remaining liver tissue-HE staining and pathological evaluation. • (D) 1/2 blood (whole blood)-liver function parameter detection: AST (aspartate aminotransferase), ALT (alanine aminotransferase/glutamate pyruvate transaminase), ALP (alkaline phosphatase), ALB (albumin), and GGT (γ-glutamyl transferase). • (E) 1/2 blood-serum preparation-reserve for ELISA.

in vivo = experiment: in vivo
Method: C57BL/6 mice, 8 weeks old, female/male, 27, supplier: SPF (Beijing) Biotechnology Co., Ltd.
The body weight of the animals was measured and recorded daily.
All groups were subjected to clinical observations before administration and 1 to 2 h after administration, and additional observations were performed if necessary. Deaths and mortality were checked twice daily. The observations should include, but are not limited to, the following: fur condition, activity, mental status, vomiting, diarrhea, and abnormal secretions around the eyes. All animals should be observed on the day of necropsy, and any abnormal findings should be recorded.
The rectal temperature of all animals was measured and recorded at 0 h before administration and at 2 h, 4 h, 8 h and 24 h after administration.
The experiment was terminated on day 7 after administration. A gross necropsy was performed to examine abdominal and thoracic organs for lesions, and the spleen and liver were collected for weighing.

[2] = tested on: ISG15, ISG56, Mx1, and Oaslb; experiment: Liver safety: qPCR of interferon-related genes in liver tissue; assay type: in vivo, C57BL/6J wild-type female mice; conditions: dose of 3 mpk (pharmacodynamic dose)
Method: as §1, §2, §3

[3] = assay type: in vivo, C57BL/6J wild-type female mice
Method: as §1, §2, §3

hERG potassium channel = hERG potassium channel (Homo sapiens, UniProt Q12809); experiment: hERG whole-cell patch-clamp; assay type: cell-based
Chain of hERG potassium channel (Q12809 whole entry): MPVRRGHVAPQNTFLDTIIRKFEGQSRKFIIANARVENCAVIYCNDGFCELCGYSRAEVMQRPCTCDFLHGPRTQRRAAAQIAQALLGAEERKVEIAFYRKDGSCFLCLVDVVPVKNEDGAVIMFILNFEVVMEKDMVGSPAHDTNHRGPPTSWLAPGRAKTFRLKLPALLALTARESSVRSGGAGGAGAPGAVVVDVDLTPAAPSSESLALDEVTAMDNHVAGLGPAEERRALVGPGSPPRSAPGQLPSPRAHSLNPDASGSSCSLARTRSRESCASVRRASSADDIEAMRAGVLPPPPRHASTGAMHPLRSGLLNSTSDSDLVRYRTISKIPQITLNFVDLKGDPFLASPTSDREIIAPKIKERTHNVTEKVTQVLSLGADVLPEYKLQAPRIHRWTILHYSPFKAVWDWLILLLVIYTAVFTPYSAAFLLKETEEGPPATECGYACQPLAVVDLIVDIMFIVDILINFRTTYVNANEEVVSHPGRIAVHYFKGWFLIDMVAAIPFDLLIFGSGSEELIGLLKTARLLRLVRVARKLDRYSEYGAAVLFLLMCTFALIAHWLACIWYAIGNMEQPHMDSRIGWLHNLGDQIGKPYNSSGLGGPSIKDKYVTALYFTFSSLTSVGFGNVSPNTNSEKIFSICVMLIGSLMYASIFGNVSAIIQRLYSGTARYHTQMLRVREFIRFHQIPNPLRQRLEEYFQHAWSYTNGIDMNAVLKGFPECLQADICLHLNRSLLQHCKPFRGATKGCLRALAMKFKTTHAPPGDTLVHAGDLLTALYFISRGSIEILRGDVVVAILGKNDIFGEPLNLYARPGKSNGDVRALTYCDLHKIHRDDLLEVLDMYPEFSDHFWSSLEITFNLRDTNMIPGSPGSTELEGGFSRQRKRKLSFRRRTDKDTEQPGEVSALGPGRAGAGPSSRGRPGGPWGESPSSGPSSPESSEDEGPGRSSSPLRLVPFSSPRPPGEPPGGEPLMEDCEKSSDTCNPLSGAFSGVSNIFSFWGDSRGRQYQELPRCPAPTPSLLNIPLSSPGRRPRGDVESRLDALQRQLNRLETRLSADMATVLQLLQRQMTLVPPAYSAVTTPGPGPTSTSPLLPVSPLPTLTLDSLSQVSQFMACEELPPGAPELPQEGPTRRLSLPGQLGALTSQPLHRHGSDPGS
Source text: The rapidly activated potassium channel encoded by human ether-a-go-go-related gene (hERG) is an important ion channel involved in the formation of cardiac action potential phase 3 repolarization. Drug-induced blockade of hERG channels can lead to delayed cardiac repolarization, manifested as QT interval prolongation on the electrocardiogram, known as long QT syndrome. Drug-induced delayed ventricular repolarization may, under certain circumstances, trigger fatal arrhythmias-torsade de pointes-type ventricular tachycardia. In this study, the whole-cell patch-clamp technique (the standard method for hERG safety assessment) was employed to evaluate the inhibitory effects of the small-molecule compounds on the hERG potassium channel and to assess the risk of ventricular repolarization toxicity.

[4] = Liver tissue distribution after single intragastric administration; conditions: for Mean drug concentration (liver) / Mean drug concentration (plasma) / AUC(0-t) at 24 h: 10 mg/kg single intragastric, ICR mice; for AUC(0-t) at 24 h: in vivo, area under curve at 24 h post-dose
Method: The specific regimen was as follows: Before administration, the state of the formulation for administration was inspected, and the homogeneity of the formulation was ensured by vortexing, stirring, or shaking. The theoretical dose for each mouse was calculated according to the following formula. The actual dose for each ICR mouse and the collection time for plasma and tissue samples were required to be recorded in detail in corresponding tables. Theoretical administration volume (mL) = ((Dose(mg⋅kg^−1))/(Concentration of test solution (mg⋅((mL))^−1))) × Animal body weight (kg) [formula]
Plasma sample collection: At each designated time point, about 100 µL of blood was collected from the orbit, and the collected whole blood was placed in an EDTA-K2 anticoagulation tube, inverted several times to mix thoroughly, stored on wet ice, and centrifuged (at 1500 g to 1600 g) for 10 min within 30 min to separate the plasma. The resulting plasma sample was stored at -40 °C to -20 °C for biological sample analysis.
The specific procedures for liver tissue collection were as follows: Liver tissues were collected immediately after whole blood collection. The liver tissues were collected, washed with ice-cold normal saline, dehydrated, weighed, and homogenized in 20% methanol-water at a ratio of 1:5 (w/v). The collection time of tissues and the weight of homogenized tissues were required to be recorded in detail in corresponding tables.
The plasma and various tissue homogenates were stored in a refrigerator at -40 °C to -20 °C for sample analysis. After the experiment was completed, the mice were euthanized by carbon dioxide asphyxiation or cervical dislocation. After the analysis was completed, the samples were returned to the biological sample room, and transferred to an environment at -40 °C to -20 °C for storage according to SOP-SM-001.
The corresponding pharmacokinetic parameters of plasma and liver tissues were calculated using a non-compartmental model in Phoenix WinNonlin 8.0 or later versions, and the area under curve AUC0-t (AUC0-t, the area under the concentration-time curve at 24 h post-dose) was calculated. The liver/plasma drug distribution ratio (RL/P) was then calculated.

Hep3B-luc = Hep3B-luc liver orthotopic xenograft mouse model; conditions: Hep3B-luc liver orthotopic tumor model, 3 mg/kg
H22-luc = H22-luc orthotopic model, 3 mpk, IG
Method: The cells were placed in an incubator at 37 °C with 5% CO2 and passaged every 1 to 2 days depending on the cell density.
The cell concentration (H22-luc, 2.0E8/mL) was adjusted, and the cells were mixed well with Matrigel at a ratio of 1:1. The mixture was placed on ice for subsequent injection experiments, and was mixed thoroughly by shaking with Vortex before use.
• (1) The mice were weighed before surgery and anesthetized by intraperitoneal injection of avertin at 0.15 mL/10 g body weight. […] The needle was inserted into the liver at a 30-degree angle relative to the liver surface. After the needle was inserted, the needle was made parallel to the tabletop and advanced in parallel for about 3 mm. 10 µL of H22-luc cell suspension was slowly injected, and a rapid whitening (white plaque) or turbid translucent vacuolation over most of the liver lobe in the injection area was observed. • (5) After injection, a cotton swab was used to apply slight pressure at the needle insertion site while the needle was slowly withdrawn. The cotton swab was removed until no bleeding was observed. • (6) The liver lobe was gently pushed back into the abdominal cavity, and the muscle layer and skin were sutured.
The experimental data were analyzed using Graphpad Prism 8. The experimental data were expressed as mean ± SD.

in vitro = conditions: human, microsomes, pH 7.4
Method: The metabolic stability of the compounds in in vitro liver microsomes was evaluated. The procedures and steps were as follows: At 37 °C, 1 µM of the compounds was incubated in 1 mg/mL liver microsomes. The reaction system was a 0.1 M potassium phosphate buffer (pH 7.4) containing 3 mmol/L MgCl2 and 1 mmol/L NADPH. At the beginning of the reaction, the small molecules and the liver microsomes were pre-incubated at 37 °C for 10 min, and subsequently a cofactor NADPH was added to initiate the metabolic reaction. The reaction was quenched at 0 min, 5 min, 10 min, 20 min, 30 min, and 60 min using three volumes of ice-cold methanol containing an internal standard (200 nM labetalol). After incubation at room temperature for 10 min, the samples were centrifuged at 4000 rpm at 4 °C for 20 min, and the supernatants were collected, diluted with chromatography-grade purified water in a 1:1 ratio, and then subjected to quantitative analysis. […] After a 6-minute chromatographic separation on a C18 column (50 × 2.1 mm; 2.6 µm) under a gradient mobile phase of 0.1% formic acid in water, the peaks corresponding to specified ionic signals were detected. […] The detailed operation process was as follows: • 1) The compound working solution was added to all 96-well reaction plates (T0, T5, T10, T20, T30, and T60) at 10 µL/well, except the blank wells. • 2) The microsomal solution was added to all the reaction wells (T0, T5, T10, T20, T30, T60, and blank wells) at 80 µL/well. • 3) The plates were pre-incubated at 37 °C for 10 min. • 4) After pre-incubation, NADPH was added to each reaction plate at 10 µL/well to initiate the reaction. • 5) At the set end time point, a 4 °C methanol solution (containing an internal standard: 200 nM labetalol) was added to each reaction plate at 300 µL/well to quench the reaction. • 6) Each plate was sealed and shaken for 10 min. • 7) The mixture was shaken well and centrifuged at 4000 rpm at 4 °C for 20 min. • 8) 300 µL of the supernatant was collected, and HPLC-grade water was added at 300 µL/well. The mixture was well mixed and then subjected to LC-MS analysis.
The metabolic half-life (T1/2) and the metabolic clearance rate (CLint(mic)) (µL/min/mg) were calculated using a first-order kinetic equation.

hepatitis B virus (HBV) = experiment: Anti-hepatitis B virus activity in HBV-infected primary human hepatocytes; assay type: cell-based, HBV type B; conditions: HBV-infected PHHs, agonist-treated PBMC supernatant (donor 1) or reference compound
Method: The culture supernatant from one donor (donor 1) was selected to stimulate HBV-infected primary hepatocytes (PHHs), and interferon α and nucleoside analog entecavir (ETV) were selected as positive controls. The experimental procedures were as follows (FIG. 14a), and the detailed procedures were as follows: On day -1, cryopreserved PHHs were thawed and adjusted to a density of 6 × 10^5 cells/mL, and the PHHs were seeded into a 48-well plate at 0.22 mL/well.
On day 0, the PHHs were infected with HBV type B at 600 GE/cells.
On day 1, the culture medium was replaced with a fresh one, and reference compounds ETV and Peg-IFN-α2a (Pegasys-Roche) were added to the cells to treat the cells. The reference compounds ETV and Peg-IFN-α2a for the PHHs were each prepared at one concentration, with three replicate wells.
The PBMC supernatants were each prepared at 4 test concentrations, diluted at a ratio of 1:4, and then added to the cells. Three replicate wells were made for each test condition. The culture medium was replaced with a fresh culture medium containing the PBMC supernatants and the reference compounds on days 5, 7, 9, and 11. On day 13, the cell supernatants were collected and the cell viability was detected using CCK-8.
The content of HBV DNA in the supernatants was determined by qPCR according to the kit instructions. HBsAg and HBeAg levels in the supernatants were determined by ELISA.

[5] = tested on: Peripheral blood mononuclear cells (hPBMCs); experiment: Cytokine secretion after stimulation of PBMCs; conditions: hPBMCs from 3 donors, 24 h of stimulation
[6] = tested on: advanced unresectable HCC; conditions: cited from earlier work
[7] = tested on: advanced hepatocellular carcinoma (aHCC); conditions: first-line aHCC; nivolumab 240 mg intravenous drip once every 2 weeks; sorafenib 400 mg oral twice daily; cited from earlier work
[8] = C57BL/6 mice, single intragastric administration
[9] = ICR, mouse, liver, oral, 10 mg/kg
[10] = ICR, mouse, liver/plasma, oral, 10 mg/kg
[11] = ICR, mouse, plasma, oral, 10 mg/kg

SMILES: COCCNc1nc(N)nc2ccc(Cc3ccc(CN(C)C)cc3)nc12 [Compound I]
expression level of IP-10 ([1]; 3 mpk i.g. single dose): increased first, then decreased, and then increased from 1 h to 4 h
expression levels of IL-6, TNF-α, and IFN-α ([1]; 3 mpk i.g. single dose): decreased from 1 h to 4 h
expression level of IP-10 ([1]; 10 mpk i.g. single dose): peaked at 2 h and decreased at 4 h
expression levels of IL-6, TNF-α, and IFN-α ([1]; 10 mpk i.g. single dose): increased from 1 h to 4 h
expression levels of IL-6, TNF-α, IFN-α, and IP-10 ([1]; 20 mpk i.g. single dose): peaked at 2 h, and decreased at 4 h
Gross necropsy (in vivo; 10 mg/kg, group 1, male animal No. 46): enlarged spleen
Cage-side observation (in vivo; 10 mg/kg, group 1, male animal No. 46, day 2): mild hunched posture
Gross necropsy (in vivo; 40 mg/kg, group 4, female animal No. 2): enlarged spleen
rectal temperature (in vivo; 2 h after treatment, significant difference vs vehicle group, returned to normal 4 h, 8 h and 24 h): decreased
Adverse reactions at maximum tolerated dose/probability (in vivo; [8]): No
Weight loss at maximum tolerated dose: whether recovered (in vivo; [8]): Yes
Weight loss rate at maximum tolerated dose (in vivo; [8]): 12.5%
With or without mouse death (in vivo; [8]): No
spleen weight (in vivo; female animals, 30 mg/kg, compared with vehicle group): significantly increased
body weight (in vivo; male and female animals, 10-40 mg/kg single administration, began to recover from day 3 to day 7): decreased after the single administration
MTD at 168 h (in vivo; mouse, in vivo, po): 40 mg/kg
mRNA expression level of interferon-related genes [2]: significantly induced an increase
ALB level ([3]; 10 mpk group at 2 h): significantly lower than that of the control group
AST levels ([3]; all administration groups, no statistically significant differences): exceeded the normal reference range
ALP levels ([3]; all dose groups): within the normal reference value range
GGT levels ([3]; all dose groups): within the normal reference value range
ALT elevation by clinical adverse reaction grading ([3]; single administration, Grade 1 AE = ALT exceeding three times the normal value): did not result in ALT elevation to grade 1 AE
ALT ([3]; whole blood, 3/10/20 mpk i.g. single dose, 1 h, 2 h, 4 h): increased in all groups
IC50 (hERG potassium channel): 17.2 µM
Mean drug concentration (liver) ([4]; 0.25h): 3416 ng/g
Mean drug concentration (plasma) ([4]; 0.25h): 45.4 ng/mL
Mean drug concentration (liver) ([4]; 1 h): 2340 ng/g
Mean drug concentration (plasma) ([4]; 1 h): 25.9 ng/mL
Mean drug concentration (liver) ([4]; 4h): 263 ng/g
Mean drug concentration (plasma) ([4]; 4h): 10.7 ng/mL
Mean drug concentration (liver) ([4]; 24h): 35.6 ng/g
Mean drug concentration (plasma) ([4]; 24h): 1.49 ng/mL
AUC(0-t) at 24 h ([4]; mouse, po, 10 mg/kg, AUC0-t (liver)): 9480 ng·h/mL
AUC(0-t) at 24 h ([4]; mouse, po, 10 mg/kg, AUC0-t (plasma)): 206 ng·h/mL
maximum body weight loss (Hep3B-luc): 8.0%
mouse death (H22-luc; QW × 3): One mouse in the compound I group died from ascites on day 20
TGI (H22-luc; QW × 3, BLI 21 days post-dose, P < 0.0001): 87.0%
half-life at 1 µM (in vitro): 1.7 h
microsomal CLint at 1 µM (in vitro): 13.7 µL/min/mg

SMILES: C=C1[C@H](CO)[C@@H](O)C[C@@H]1n1cnc2c(=O)[nH]c(N)nc21 [ETV, entecavir, reference compound]
levels of surface antigens HBeAg and HBsAg (hepatitis B virus (HBV); supernatant ELISA day 13): did not reduce
level of HBV DNA (hepatitis B virus (HBV); supernatant qPCR day 13): significantly inhibited

Mean drug concentration (liver) ([4]; 24h): BLOQ
Mean drug concentration (plasma) ([4]; 24h): BLOQ
concentration at 0.25 h [4, 9]: 907 ng/g
concentration at 1 h [4, 9]: 224 ng/g
concentration at 4 h [4, 9]: 207 ng/g
AUC(0-t) ([4]; ICR, mouse, liver, po, 10 mg/kg): 1180 ng·h/mL
Kp [4, 10]: 3.5
Kp at 0.25 h [4, 10]: 2.49
Kp at 1 h [4, 10]: 3.16
Kp at 4 h [4, 10]: 15
Kp ([4]; ICR, mouse, liver/plasma, po, 10 mg/kg): 3.5
concentration at 0.25 h [4, 11]: 364 ng/mL
concentration at 1 h [4, 11]: 70.9 ng/mL
concentration at 4 h [4, 11]: 13.8 ng/mL
AUC(0-t) ([4]; ICR, mouse, plasma, po, 10 mg/kg): 336 ng·h/mL
SMILES: CCCC[C@](C)(CO)Nc1nc(N)nc2cc(F)cnc12 [GS-9688, reference compound]
IFN-α stimulating activity [5]: essentially failed to activate IFN-α

SMILES: CNC(=O)c1cc(Oc2ccc(NC(=O)Nc3ccc(Cl)c(C(F)(F)F)c3)cc2)ccn1 [sorafenib]
median survival ([6]; patients with advanced unresectable HCC (N = 602), placebo 7.9 months): 10.7 months
progression-free survival ([6]; placebo 84 days): 167 days
ORR [7]: 7%
mOS [7]: 14.7 months
